Experimental data as given in patent US8088742B2, “Polyol-glycoside compositions for the skin” (Societe d'Exploitation de Produits pour les Industries …, priority 2002, dated 2012).

How the values were obtained:
[1] = system: skin (epidermis) in a normal volunteer; assay: In vivo measurement of the moisturization of the skin with Hydrascan; design: species or system human; settings: for Degree of moisturization of the skin measured with Hydrascan, Cycle 1: stratum corneum + superficial epidermis / Degree of moisturization of the skin measured with Hydrascan, Cycle 2: superficial + middle epidermis / Degree of moisturization of the skin measured with Hydrascan, Cycle 3: entire epidermis: percentage increase relative to placebo zone, topical 20 mg/cm2, 8 h after application, mean of six volunteers; for Degree of moisturization of the skin measured with Hydrascan, Cycle 1: stratum corneum + superficial epidermis / Degree of moisturization of the skin measured with Hydrascan, Cycle 2: superficial + middle epidermis / Degree of moisturization of the skin measured with Hydrascan, Cycle 3: entire epidermis / effect on the degree of moisturization of the epidermis (in words): 3% in cream gel; for effect on the degree of moisturization of the epidermis (in words): 8 h after application
Experimental: A-In Vivo Measurement of the Moisturization of the Skin in a Normal Volunteer by Means of […] effect on the degree of moisturization of the skin of various polyol-glycosides according to the invention, of glyceryl glucoside and of various polyols was measured and compared in humans. […] This device comprises a micro-effusimeter connected to a flexible sensor and makes it possible to produce a thermal wave which propagates within the epidermis, and to register the variation in temperature during the pulse. […] 5% (weight/volume) of Lanol® 99 (isononyl isononanoate); 0.5% (weight/volume) of […]® HB (phenoxy-ethanol, methyl-, ethyl-, propyl-, butylparaben). A cream gel having the same composition but containing no test product is used as a placebo. The study is carried out on three groups of six volunteers, as a double-blind study, i.e. neither the experimenter nor the volunteer knows the identity of the test product. The following four skin zones are defined on the forearms of each volunteer: The products are applied topically at a rate of 20 mg/cm^2, the measurements being carried out 8 h after application. […] The degree of moisturization is measured by means of […]®, on each skin zone defined above, the values obtained for each of the three cycles being recorded and expressed as percentage increase in moisturization of the skin relative to the zone treated with the placebo.

[2] = system: normal human dermal fibroblast cultures; assay: In vitro measurement of the production of hyaluronic acid in fibroblast cultures; type: cell-based; settings: 5 days of incubation; for effect on the amount of extracellular hyaluronic acid (in words): 0.01% and 0.1% (w/v)
Experimental: B—In Vitro Measurement of the Effect of the Polyol-Glycosides According to the Invention on the Production of Hyaluronic Acid
To confirm the moisturizing activity of the polyol-glycosides according to the invention, the effect of these products on the amount of hyaluronic acid was measured. It is in fact known that hyaluronic acid is a major non-sulfated glycosaminoglycan which plays an essential role in moisturizing the skin, by means of its ability to attach up to 1000 times its weight in water.
The amount of hyaluronic acid is measured in normal human dermal fibroblast cultures.
The cells are incubated for 5 days in the presence of the test products solubilized in the incubation medium.
At the end of this incubation, the extracellular media, into which the hyaluronic acid is secreted, are removed.
The hyaluronic acid is stained with a specific dye, STAINS ALL ((1-ethyl-2-[3-(1-ethylnaphtho[1,2-d]thiazolin-2-ylidene)-2-methylpropenyl]naphtho[1,2-d]thiazolium) bromide, provided by Sigma), which interacts with the hyaluronic acid to produce a change of absorption spectrum between 620 and 660 nm, observed by means of a spectrophotometer. A standard range of hyaluronic acid is effected in parallel.
The polyols and the polyol-glucosides are tested in aqueous solution at 0.01% and 0.1% (w/v).
D0: seeding of the fibroblasts (24-well culture plates, 15 300 cells/well);
D3: incubation of the products tested, diluted in the fibroblast incubation medium;
D8: removal of the fibroblast incubation media, assaying of the hyaluronic acid.
At the end of the 5 days of incubation in the presence of the products, the incubation media are removed and incubated in the presence of STAINS ALL. The colorimetric reaction is visualized by adding water.
The quantification is carried out by spectrophotometry for a wavelength of 630 nm.
A standard range of hyaluronic acid (0 to 12.5 μg/ml) is effected in parallel.
The results are expressed in μg/ml of extracellular hyaluronic acid.
The results which were obtained, expressed as percentage increase in the amount of extracellular hyaluronic acid relative to the control group, are reported in the following table: […]

[3] = system: human skin explant; assay: In vitro measurement of the synthesis of epidermal ceramides in human skin explant model; type: cell-based; settings: for effect on the neosynthesis of ceramides 1 and 2 (in words): 24 hours on human skin explants; for percentage increase in the amount of ceramide 1 relative to the control group / percentage increase in the amount of ceramide 2 relative to the control group: topical 3% in cream gel (EGF 10 ng/ml in culture medium), 24 hours, 14C-acetate labeling
Experimental: C—In Vitro Measurement of the Xylityl Glucoside According to the Invention on the Synthesis of Epidermal Ceramides
The study is carried out in vitro in a human skin explant model. The products, formulated at 3% in a cream gel, are applied to the surface of the skin explants for 24 hours. The neosynthesis of the epidermal lipids is studied by radioactive labeling (carbon 14-labeled acetate) of the neosynthesized lipids, followed by thin layer chromatography to separate the various types of lipids and in particular the ceramides.
The xylityl glucoside according to example 1 of the invention, formulated at 3% in a cream gel comprising 2% of Sepigel® 305, 5% of Lanol 99, and qs of water.
Epidermal growth factor (EGF), known to increase the synthesis of ceramides, which constitutes a reference molecule for this test. The EGF is tested at 10 ng/ml in the skin explant culture medium.
A commercially available formulation containing lactic acid, which constitutes a reference for the test, lactic acid being known to increase the synthesis of ceramides.
The study is carried out on disks of human skin originating from cosmetic surgery (abdominoplasty, person). Disks 8 mm in diameter are produced using a hole punch and deposited onto culture inserts placed in culture wells containing an appropriate nutritive medium (MEM/M199 medium (¾, ¼, v/v) supplemented with penicillin (50 IU/ml, streptomycin (50 μg/ml), sodium bicarbonate (0.2% w/v), serum (2% v/v) and carbon 14-labeled acetate (1 μCi/ml)).
The products are tested by topical application (except for the EGF) for 24 hours.
At the end of the 24 hours of incubation, the skin explants are rinsed with phosphate buffered saline. For each disk of skin, the dermis is dissociated from the epidermis by controlled heat shock (1 min at 70° C.). The epidermal lipids are extracted by a partition between an organic phase (methanol/chloroform (1:2)) and an aqueous phase (0.25 M potassium chloride). The organic phase is then evaporated under vacuum and the residue is taken up in a chloroform/methanol (2:1) mixture.
The various epidermal lipids are then separated by thin layer chromatography (silica 60): chloroform/acetone/methanol (38:2:10); chloroform/acetone/methanol (40:5:5); chloroform/ethyl acetate/diethyl ether/methanol (36:10:3:1). The radioactivity of the fractions thus separated is counted with a radioactivity analyzer (Storm, Amersham).
The results are expressed as % variation relative to the control group.

[4] = system: skin; assay: Evaluation on the skin of acute skin irritation (Primary Cutaneous Irritation index); type: in vivo; settings: for PCI index: Primary Cutaneous Irritation index; for Irritation classification: scale of the protocol in Journal Officiel de la République Francaise of Feb. 21, 1982
Experimental: The skin tolerance of the various polyol-glycosides was evaluated by means of a study of “evaluation on the skin of acute skin irritation”, carried out by an independent pharmaceutical and cosmetic consultancy-expertise company.
The Primary Cutaneous Irritation (PCI) index measurements, carried out according to the same protocol, are contained in the following table:
Each compound studied is classified, in view of the results obtained under the selected experimental conditions, nonirritant for the skin, with reference to the scale proposed in the protocol described in the Journal Officiel de la République Francaise [Official Journal of the French Republic] of Feb. 21, 1982.

In the case of `OC[C@@H](O)[C@@H](O)CO` [Erythritol, erythritol], the “Degree of moisturization of the skin measured with Hydrascan, Cycle 1: stratum corneum + superficial epidermis” value (“Degree … stratum corneum + superficial epidermis” for short) [1] is reported as “+9%”, the “Degree of moisturization of the skin measured with Hydrascan, Cycle 2: superficial + middle epidermis” value (“Degree … superficial + middle epidermis” below) [1] is reported as “+9%” and the “Degree of moisturization of the skin measured with Hydrascan, Cycle 3: entire epidermis” value (from here on “Degree of moisturization … entire epidermis”) [1] is reported as “+9%”. For the same compound, the “effect on the amount of extracellular hyaluronic acid (in words)” value (“effect on the amount” for short) [2] was “no effect”, the “percentage increase in the amount of extracellular hyaluronic acid relative to the control group” value ([2]; concentration 0.01% (w/v)) was <10% and the “percentage increase in the amount of extracellular hyaluronic acid relative to the control group” value ([2]; concentration 0.1% (w/v)) was <10%.

For `OCC(O)CO` [Glycerol, glycerol], the “effect on the amount” value [2] was “no effect” and the “effect on the neosynthesis of ceramides 1 and 2 (in words)” value (shortened to “effect on the neosynthesis”) [3] was “not observed”.

`OC[C@@H](O)[C@H](O)[C@@H](O)CO` [Xylitol, xylitol] was tested, and the “effect on the degree of moisturization of the epidermis (in words)” value (“effect on the degree” below) [1] was “no effect”, the “Degree … stratum corneum + superficial epidermis” value [1] was <5% and the “Degree … superficial + middle epidermis” value [1] was <5%. For the same compound, the “Degree of moisturization … entire epidermis” value [1] was <5%, the “effect on the amount” value [2] was “no effect” and the “percentage increase in the amount of extracellular hyaluronic acid relative to the control group” value ([2]; concentration 0.01% (w/v)) was <10%. The “percentage increase in the amount of extracellular hyaluronic acid relative to the control group” value ([2]; concentration 0.1% (w/v)) was <10%.

With `O=C[C@H](O)[C@@H](O)[C@H](O)CO` [Xylose, xylose] the “effect on the degree” value [1] was “no moisturizing effectiveness”, the “Degree … stratum corneum + superficial epidermis” value [1] was <5% and the “Degree … superficial + middle epidermis” value [1] was <5%. The “Degree of moisturization … entire epidermis” value [1] was <5%.

With “EGF: Epidermal growth factor, known to increase the synthesis of ceramides, reference molecule for this test” the “effect on the neosynthesis” value [3] was “act, but less effectively”, the “percentage increase in the amount of ceramide 1 relative to the control group” value [3] was 166.1% and the “percentage increase in the amount of ceramide 2 relative to the control group” value [3] was 152.3%.

Erythrityl Glucoside [Example 2] was tested, and the “Degree … stratum corneum + superficial epidermis” value [1] was “+18%”, the “Degree … superficial + middle epidermis” value [1] was “+11%” and the “Degree of moisturization … entire epidermis” value [1] was “+12%”. The “percentage increase in the amount of extracellular hyaluronic acid relative to the control group” value ([2]; concentration 0.01% (w/v)) was “+64%”, the “percentage increase in the amount of extracellular hyaluronic acid relative to the control group” value ([2]; concentration 0.1% (w/v)) was <10% and the PCI index [4] was 0. The Irritation classification [4] was “Nonirritant”.

In the case of “Glyceryl Glucoside [Comparative example]”, the “Degree … stratum corneum + superficial epidermis” value [1] is reported as <5%, the “Degree … superficial + middle epidermis” value [1] is reported as <5% and the “Degree of moisturization … entire epidermis” value [1] is reported as <5%. The “effect on the amount” value [2] was “does not increase”, the “percentage increase in the amount of extracellular hyaluronic acid relative to the control group” value ([2]; concentration 0.01% (w/v)) was <10% and the “percentage increase in the amount of extracellular hyaluronic acid relative to the control group” value ([2]; concentration 0.1% (w/v)) was <10%. The PCI index [4] was 0 and the Irritation classification [4] was “Nonirritant”.

For Xylityl Glucoside [Example 1], the “effect on the degree” value [1] was “very substantially increases”, the “increase in degree of moisturization greater than that obtained with glycerol” value ([1]; difference to glycerol across the epidermal layers) was 14 to 20% and the “Degree … stratum corneum + superficial epidermis” value [1] was “+28%”. For the same compound, the “Degree … superficial + middle epidermis” value [1] was “+33%”, the “Degree of moisturization … entire epidermis” value [1] was “+30%” and the “effect on the amount” value [2] was “increase”. For the same compound, the “percentage increase in the amount of extracellular hyaluronic acid relative to the control group” value ([2]; concentration 0.01% (w/v)) was “+158%”, the “percentage increase in the amount of extracellular hyaluronic acid relative to the control group” value ([2]; concentration 0.1% (w/v)) was “+161%” and the “effect on the neosynthesis” value [3] was “significantly increases”. The “percentage increase in the amount of ceramide 1 relative to the control group” value [3] was 295.7%, the “percentage increase in the amount of ceramide 2 relative to the control group” value [3] was 236.5% and the PCI index [4] was 0. The Irritation classification [4] was “Nonirritant”.
